Laboratory results from US20230173014A1, “WINE LEES, DERIVATIVES THEREOF AND THEIR USES” (GRANDES VINOS Y VIÑEDOS SA, priority 2021, published 2023).

What was measured:
[1] = test system: spontaneously hypertensive rats (SHR); experiment: Antihypertensive activity after acute intragastric administration in hypertensive rats (tail-cuff); assay type: in vivo, rat; conditions: for ΔSBP (mmHg) 2 h: mean ± ESM n=6; for ΔSBP (mmHg) 4 h / ΔSBP (mmHg) 6 h / ΔSBP (mmHg) 8 h / ΔSBP (mmHg) 24 h / ΔSBP (mmHg) 48 h: same doses; for maximum values of SBP reduction: printed as at 4 h post-administration
Experimental: For the study, male SHR rats 17-20 weeks old and weighing between 310 and 360 g, from Charles River Laboratories España S.A. were used. The rats remained at a stable ambient temperature of 23° C., and with light-dark cycles of 12 hours, eating food and water ad-libitum.
The BP measurement in these animals was carried out with a modification of the tail-cuff technique, following the methodology and equipment described by Mas-Capdevila et al. 2018. The measurement of the SBP was performed prior to the administration of the treatments and after their administration at 2, 4, 6, 8, 24 and 48 h. The treatments consisted of the acute administration of a dose of 5 mL/kg bw of the different wine lees (supernatant collected after centrifugation at 2,950×g, 15 min, 4° C.). The effect of water administration (1.5 mL, negative control) was also evaluated in order to know the circadian variation of SBP in rats and of captopril (50 mg/kg bw dissolved in 1.5 mL of water), antihypertensive drug used as a positive control. The administration of all the treatments was carried out by means of an intragastric tube at between 9 and 10 a.m.
The SBP and DBP results are represented as a decrease in SBP or DBP at different times with respect to the SBP or DBP observed at 0 h (without treatment) for each animal (FIG. 1). Each data represents the mean±the ESM (n=6). Furthermore, the data of the different groups were compared in a 2-way analysis of variance (ANOVA) using the Tukey test at each post-administration time with the SPSS statistical program (IBM SPSS Statistics software version 20.0) and the difference was considered significant for p values <0.05.
In the present example, the effect of dry UVC wine lees, without alcohol, on its antihypertensive activity is described by means of its acute administration to SHR rats. The study was carried out following the method and conditions described in Example 3. The treatments that were evaluated consisted of the acute administration of water (1.5 mL), captopril (50 mg/kg bw), UVC wine lees (5 mL/kg bw), or the same lyophilized lees (125 mg/kg bw). The tested dose of lyophilized lees (125 mg/kg bw) corresponded to the same amount of dry product that is in 5 mL/kg bw of the wine lees. Solid state treatments were diluted in water for administration to animals. […] In fact, it increased its effectiveness from the two hours after its administration, producing a drop in systolic blood pressure of −33 mmHg compared to −12 mmHg, a drop produced by those without drying. Furthermore, its effect was more prolonged in time. Specifically, lyophilized UVC wine lees produced a drop in SBP of −41 mmHg at 24 h post-administration.
The antihypertensive effect of the “hydrolysate 3” was studied for 72 h (0, 2, 4, 6, 8, 24, 48, and 72 h), after its administration by intragastric tube. As in Example 3, negative and positive BP controls were performed, obtained after administration of water and captopril (50 mg/kg bw) respectively, in a volume of 1.5 mL per animal. The antihypertensive activity of the wine lees used to prepare “hydrolysate 3” and “hydrolysate 3” was evaluated, both at a dose of 5 mL/kg bw. The lees used in these tests were from a different batch than the one used in Example 3.
For the evaluation of the possible acute antihypertensive effect of the peptides, a study in SHR rats was carried out, provided by Charles River Laboratories Espana S.A. The rats' age, stalling conditions and BP measurement technique were the same as those described in Example 3. The initial SBP of the animals was 204±2 mmHg. A negative control (water) and a positive control (captopril) were also included during the study. The peptides were administered intragastrically at a single dose of 10 mg/kg bw and captopril at 50 mg/kg bw, diluted in water. BP measurements were pooled and the mean±ESM was obtained (n=6 per group). The same analysis of variance was used as in Example 3.

[2] = molecular target: Angiotensin Converting Enzyme (ACE) (Homo sapiens, UniProt P12821); experiment: ACEI activity measurement (in vitro ACE inhibition); assay type: biochemical; conditions: synthetic peptides at 0.83 mg/mL
Experimental: Once the wine lees were collected, they were centrifuged at 2,950×g, 15 min, 4° C. and the supernatant was collected. The ACEI activity of the supernatants was determined as described in Example 2.
The ACEI activity measurement of the wine lees and their hydrolysates was performed according to the method described by Mas-Capdevila et al. 2018 (“Dose-related antihypertensive properties and the corresponding mechanisms of a chicken foot hydrolysate in hypertensive rats”. Nutrients. 2018, 10 (9), 1295), after centrifugation at 2,950×g, 15 min, 4° C. and a dilution of 1/256.
The percentage of inhibition (% Inhibition) was calculated applying the following formula: […]
The IC50 was calculated by determining the ACEI percentage of different concentrations of the sample. […] Subsequently, the necessary amount of the sample was calculated to inhibit 50% of the enzyme by extrapolating in the previously obtained straight line. […]

[3] = Example 10, peptides 10 mg/kg bw, captopril 50 mg/kg bw, intragastric

Chain of Angiotensin Converting Enzyme (ACE) (P12821 30-1306, species assumed): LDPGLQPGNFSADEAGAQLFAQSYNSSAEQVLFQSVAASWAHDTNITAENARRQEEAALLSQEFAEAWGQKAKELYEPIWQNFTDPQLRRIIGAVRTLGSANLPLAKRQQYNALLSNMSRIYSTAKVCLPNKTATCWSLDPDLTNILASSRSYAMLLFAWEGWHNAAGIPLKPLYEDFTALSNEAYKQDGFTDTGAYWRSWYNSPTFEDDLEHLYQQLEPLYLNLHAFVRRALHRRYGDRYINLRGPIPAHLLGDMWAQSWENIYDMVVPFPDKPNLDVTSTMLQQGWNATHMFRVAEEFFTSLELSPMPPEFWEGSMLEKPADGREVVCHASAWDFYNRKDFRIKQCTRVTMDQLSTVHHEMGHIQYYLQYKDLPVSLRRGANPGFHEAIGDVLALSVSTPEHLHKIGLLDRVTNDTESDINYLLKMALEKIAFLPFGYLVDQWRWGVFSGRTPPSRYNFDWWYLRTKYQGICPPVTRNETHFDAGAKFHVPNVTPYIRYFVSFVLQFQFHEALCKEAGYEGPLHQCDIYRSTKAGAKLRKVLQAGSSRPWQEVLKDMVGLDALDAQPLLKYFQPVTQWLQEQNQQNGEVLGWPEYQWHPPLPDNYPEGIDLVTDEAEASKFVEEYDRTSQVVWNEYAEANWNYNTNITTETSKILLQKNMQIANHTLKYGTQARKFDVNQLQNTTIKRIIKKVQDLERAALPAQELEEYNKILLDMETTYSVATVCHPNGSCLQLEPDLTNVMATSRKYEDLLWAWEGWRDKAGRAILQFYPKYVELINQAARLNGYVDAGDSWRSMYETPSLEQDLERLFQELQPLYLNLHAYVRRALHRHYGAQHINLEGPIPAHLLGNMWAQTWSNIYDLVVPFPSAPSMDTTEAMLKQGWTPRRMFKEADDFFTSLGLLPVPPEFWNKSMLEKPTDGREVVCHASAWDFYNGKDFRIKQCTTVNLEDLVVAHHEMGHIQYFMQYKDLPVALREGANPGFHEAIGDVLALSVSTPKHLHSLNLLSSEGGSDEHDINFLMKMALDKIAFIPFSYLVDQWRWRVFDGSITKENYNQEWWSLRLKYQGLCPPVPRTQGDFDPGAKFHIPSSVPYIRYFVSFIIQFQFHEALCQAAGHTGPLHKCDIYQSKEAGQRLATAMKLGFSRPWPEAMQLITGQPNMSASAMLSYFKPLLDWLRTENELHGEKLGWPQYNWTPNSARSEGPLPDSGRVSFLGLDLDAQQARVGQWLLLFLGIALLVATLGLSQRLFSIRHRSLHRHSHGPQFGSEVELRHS

Compound	ΔSBP (mmHg) 2 h [1, 3] [mmHg]	ΔSBP (mmHg) 4 h ([1]; Example 10) [mmHg]	ΔSBP (mmHg) 6 h ([1]; Example 10) [mmHg]	ΔSBP (mmHg) 8 h ([1]; Example 10) [mmHg]	ΔSBP (mmHg) 24 h ([1]; Example 10) [mmHg]	ΔSBP (mmHg) 48 h ([1]; Example 10) [mmHg]	ACEI activity (%) [2] [%]	other results
C[C@H](CS)C(=O)N1CCC[C@H]1C(=O)O [Captopril, captopril, reference compound]	−19 ± 6	−34 ± 4	−44 ± 4	−45 ± 3	−22 ± 6	−7 ± 4	–	maximum decrease in SBP ([1]; Example 3, FIG. 1A, at 6 h post-administration, wine lees 5 mL/kg bw, captopril 50 mg/kg bw): −43.2±3.9 mmHg; maximum decrease in DBP ([1]; Example 3, FIG. 1B, at 6 h post-administration, wine lees 5 mL/kg bw, captopril 50 mg/kg bw): −47.2±1.5 mmHg; ΔSBP (mmHg) 2 h ([1]; Example 4, captopril 50 mg/kg bw, UVC wine lees 5 mL/kg bw, lyophilized lees 125 mg/kg bw): −24 ± 3 mmHg; ΔSBP (mmHg) 4 h ([1]; Example 4): −26 ± 2 mmHg; ΔSBP (mmHg) 6 h ([1]; Example 4): −43 ± 4 mmHg; ΔSBP (mmHg) 8 h ([1]; Example 4): −16 ± 3 mmHg; ΔSBP (mmHg) 24 h ([1]; Example 4): −1 ± 2 mmHg; ΔSBP (mmHg) 48 h ([1]; Example 4): −2 ± 3 mmHg; maximum decrease in SBP at 6 h ([1]; Example 8, FIG. 4, captopril 50 mg/kg bw): −43 mm Hg; decrease in SBP at 48 h after administration ([1]; Example 8, hydrolysate 5 mL/kg bw, captopril 50 mg/kg bw): no longer exerted any significant effect; ΔSBP (mmHg) 2 h ([1]; Example 10, peptides 10 mg/kg bw, captopril 50 mg/kg bw, intragastric, listed as captopril): −19 mmHg; ΔSBP (mmHg) 24 h ([1]; Example 10, listed as captopril): −22 mmHg; decrease in SBP ([1]; FIG. 2A, 6 h after administration, captopril 50 mg/kg bw): −43 mmHg
FKTTDQQTRTTVA (Synthesized peptide P1) [peptide identified in hydrolysate 3, chemically synthesized]	−12 ± 2	−15 ± 4	−23 ± 5	−24 ± 3	−13 ± 3	−1 ± 3	27.0 ± 5.6	maximum values of SBP reduction ([1]; Example 10, 10 mg/kg bw): −23 mmHg
LDSPSEGRAPG (Synthesized peptide P5) [peptide identified in hydrolysate 3, chemically synthesized]	−10 ± 4	−12 ± 5	−18 ± 3	−18 ± 3	−3 ± 4	−1 ± 4	–	–
LDSPSEGRAPGAD (Synthesized peptide P6) [peptide identified in hydrolysate 3, chemically synthesized]	−11 ± 2	−16 ± 4	−24 ± 3	−22 ± 4	−2 ± 4	−5 ± 4	2.4 ± 0.9	maximum values of SBP reduction ([1]; Example 10, 10 mg/kg bw): −24 mmHg
NPKLVTIV (Synthesized peptide P2) [peptide identified in hydrolysate 3, chemically synthesized]	−9 ± 6	−13 ± 4	−19 ± 5	−14 ± 3	−5 ± 4	−5 ± 3	48.5 ± 9.1	–
PAGELHP (Synthesized peptide P4) [peptide identified in hydrolysate 3, chemically synthesized]	−7 ± 3	−5 ± 4	−6 ± 5	−5 ± 4	−3 ± 7	−2 ± 3	–	antihypertensive effect in SHR ([1]; Example 10, 10 mg/kg bw): did not show an antihypertensive effect
TVTNPARIA (Synthesized peptide P3) [peptide identified in hydrolysate 3, chemically synthesized]	−2 ± 4	−14 ± 4	−16 ± 2	−14 ± 4	−5 ± 3	−2 ± 3	–	–
